As usually defined, the IC50 is the concentration that gives 50% inhibition.

In brackets after ≈: the same amount, converted by molar mass. Read-outs that look alike come from different tables or passages of the source.

These results are taken from article PMC9821961, “Ring-Modified Histidine-Containing Cationic Short Peptides Exhibit Anticryptococcal Activity by Cellular Disruption” (Molecules, 2022).

What all share (assay): microbe, parasite or virus in culture
Assay [1] has as its system S. aureus. The format is cell-based, Staphylococcus aureus. An excerpt:
(§1) Microbial strains: Microbial strains were procured from National Culture Collection of Pathogenic Fungi (NCCPF) at the Postgraduate Institute of Medical Education & Research (PGIMER), Chandigarh and Microbial Type Culture Collection and Gene bank (MTCC) at the Institute of Microbial Technology (IMTECH), Chandigarh, India. Peptides were screened against five different strains of fungi: viz. Candida albicans (NCCPF400034), Candida glabrata (MTCC 3019), Candida parapsilosis (NCCPF 440002), Candida krusei (NCCPF 440002) and Cryptococcus neoformans (NCCPF250316), and five strains of bacteria: viz. Escherichia coli (MTCC 2961), Staphylococcus aureus (MTCC 3160), Enterococcus faecalis (MTCC 439), Streptococcus pyogenes (MTCC 442) and Pseudomonas aeruginosa (MTCC 3542).
(§2) Growth media: Antifungal susceptibility testing was carried out using standard broth microdilution assays as per the Clinical and Laboratory Standards Institute (CLSI) guidelines for fungi. RPMI 1640 (Sigma), yeast extract, peptone and dextrose (YPED, Himedia) were used as the incubation broths. The cells were diluted to a cell density of 10^3 colony forming unit (CFU/mL) and incubated at 30 °C for 48 h. Furthermore, Muller Hinton (Himedia) media was utilized for bacterial strains and antibacterial activity was evaluated per CLSI guidelines for bacteria. […] Amphotericin B (Himedia, India) and rifampicin (Himedia, India) were used as standard drugs for the evaluation of activity against all the fungal and bacterial strains, respectively.
(§3) The stock solutions of peptides (2 mg/mL) were prepared in DMSO. Specific amounts of peptide from stock solution were added to a 96-well microtiter plate containing 100 μL of growth media and then serially diluted two-fold. A further 100 μL of growth media containing microbial cells were added to each well and incubated at 30–37 °C for 24–48 h. The optical density (OD) was measured at 600 nm using a BioStack Ready (BioTek Instruments, Winooski, VT, USA) microplate reader to analyze microbial growth inhibition, and IC50 and MIC values were calculated. To visualize the growth and inhibition pattern, a solution of 3-(4,5-dimethylthiazol-2-yl)-2,5-diphenyltetrazolium bromide (MTT) in water was added to the plate and incubated for 2–3 h. MTT reacts with the mitochondrial dehydrogenases, which are present only in a viable cell, to give blue colored formazan crystals. Therefore, a darker color indicates a high number of viable cells; however, non-viable cells appear pale or colorless.

Assay [2] has as its system E. coli. Type of assay: cell-based, Escherichia coli.
From the text: as §1, §2, §3

In assay [3] the test system is P. aeruginosa. Type of assay: cell-based, Pseudomonas aeruginosa.
In assay [4] the test system is C. albicans. The format is cell-based, Candida albicans. The settings on record: 48 h.
From the text: as §1
(§4) Growth media: Antifungal susceptibility testing was carried out using standard broth microdilution assays as per the Clinical and Laboratory Standards Institute (CLSI) guidelines for fungi. RPMI 1640 (Sigma), yeast extract, peptone and dextrose (YPED, Himedia) were used as the incubation broths. The cells were diluted to a cell density of 10^3 colony forming unit (CFU/mL) and incubated at 30 °C for 48 h. Furthermore, Muller Hinton (Himedia) media was utilized for bacterial strains and antibacterial activity was evaluated per CLSI guidelines for bacteria. Bacterial cells were diluted to a cell density of 10^5 CFU/mL and incubated at 37 °C for 24 h. Amphotericin B (Himedia, India) and rifampicin (Himedia, India) were used as standard drugs for the evaluation of activity against all the fungal and bacterial strains, respectively.
as §3

For assay [5], the system named is C. parapsilosis. Type of assay: cell-based, Candida parapsilosis. The settings on record: 48 h.
From the text: as §1, §4, §3

In assay [6] the test system is E. faecalis. The format is cell-based, Enterococcus faecalis.
Assay [7] relates to C. krusei. The format is cell-based, Candida krusei. To be noted: 48 h.
From the text: as §1, §4, §3

For assay [8], the system named is S. pyogens. The format is cell-based, Streptococcus pyogenes.
Assay [9] relates to C. glabrata. Type of assay: cell-based, Candida glabrata. To be noted: 48 h.
From the text: as §1, §4, §3

Assay [10] deals with C. neoformans. The format is cell-based, Cryptococcus neoformans. The settings on record: 48 h.
From the text: as §1, §4, §3

Consider `COC(=O)[C@H](Cc1ncn(Cc2ccc(C(C)C)cc2)c1I)NC(=O)[C@@H](N)Cc1c[nH]c2ccccc12` [10c], for which the IC50 in assay [1] (48 h), in [2] (48 h), in assay [3] (48 h), in assay [4], in assay [5] and in assay [6] (48 h) was greater than 35.2 µg/mL each time. The IC50 in assay [7] was greater than 35.2 µg/mL; in [8] (48 h) it was greater than 35.2 µg/mL; in [9], greater than 35.2 µg/mL; in assay [10], 8.81 µg/mL (≈ 14.4 µM). In addition, the MIC in assay [1] (48 h), in assay [2] (48 h), in [3] (48 h), in assay [4], in assay [5] and in [6] (48 h) was greater than 64.0 µg/mL in each case. In addition, the MIC in assay [7] is greater than 64.0 µg/mL; in assay [8] (48 h) it was greater than 64.0 µg/mL; in assay [9] it was greater than 64.0 µg/mL; in assay [10] it was 16.02 µg/mL (≈ 26.1 µM).
For the compound `COC(=O)[C@H](Cc1ncn(Cc2ccc(C(C)(C)C)cc2)c1I)NC(=O)[C@@H](N)Cc1c[nH]c2ccccc12` [10b], the half-maximal inhibitory concentration (IC50) in [1] (48 h) is 35.2 µg/mL (≈ 56.1 µM); in assay [2] (48 h) it was 35.2 µg/mL (≈ 56.1 µM); in [3] (48 h) it was greater than 35.2 µg/mL; in assay [4], greater than 35.2 µg/mL; in assay [5], greater than 35.2 µg/mL; in [6] (48 h), greater than 35.2 µg/mL. For the same compound, the IC50 in [7] is greater than 35.2 µg/mL; in assay [8] (48 h), greater than 35.2 µg/mL; in [9], greater than 35.2 µg/mL; in [10] it was 5.15 µg/mL (≈ 8.21 µM). The MIC in [1] (48 h) is 64.0 µg/mL (≈ 102 µM); in assay [2] (48 h) it was 64.0 µg/mL (≈ 102 µM); in assay [3] (48 h), greater than 64.0 µg/mL; in assay [4] it was greater than 64.0 µg/mL; in assay [5] it was greater than 64.0 µg/mL; in assay [6] (48 h), greater than 64.0 µg/mL. Moreover, the MIC in [7], in assay [8] (48 h) and in assay [9] was greater than 64.0 µg/mL throughout.
For the compound `COC(=O)[C@H](Cc1ncn(Cc2ccccc2)c1I)NC(=O)[C@@H](N)Cc1c[nH]c2ccccc12` [10a], the IC50 in [4] is greater than 35.2 µg/mL; in assay [5], greater than 35.2 µg/mL; in assay [7], greater than 35.2 µg/mL; in assay [9] it was greater than 35.2 µg/mL; in [10], 17.68 µg/mL (≈ 30.9 µM). Further, the MIC in assay [4] is greater than 64.0 µg/mL; in assay [5] it was greater than 64.0 µg/mL; in [7] it was greater than 64.0 µg/mL; in [9] it was greater than 64.0 µg/mL; in [10], 32.15 µg/mL (≈ 56.3 µM).
Turning to `COC(=O)[C@H](Cc1ncn(Cc2cccc(C(F)(F)F)c2)c1I)NC(=O)[C@H](Cc1c[nH]c2ccccc12)NC(=O)OC(C)(C)C` [9e], the IC50 is greater than 35.2 µg/mL in [4]; greater than 35.2 µg/mL in assay [5]; greater than 35.2 µg/mL in [7]; greater than 35.2 µg/mL in assay [9]; 20.71 µg/mL (≈ 28 µM) in [10]. The MIC in assay [4] is greater than 64.0 µg/mL; in assay [5] it was greater than 64.0 µg/mL; in [7], greater than 64.0 µg/mL; in [9], greater than 64.0 µg/mL; in assay [10] it was 37.65 µg/mL (≈ 50.9 µM).
In the case of `COC(=O)[C@H](Cc1ncn(Cc2cc(F)cc(F)c2)c1I)NC(=O)[C@H](Cc1c[nH]c2ccccc12)NC(=O)OC(C)(C)C` [9j], the IC50 in assay [4] is greater than 35.2 µg/mL; in assay [5], greater than 35.2 µg/mL; in assay [7], greater than 35.2 µg/mL; in assay [9], greater than 35.2 µg/mL; in assay [10], 17.73 µg/mL (≈ 25.1 µM). For the same compound, the MIC in [4] was greater than 64.0 µg/mL; in assay [5], greater than 64.0 µg/mL; in assay [7] it was greater than 64.0 µg/mL; in assay [9] it was greater than 64.0 µg/mL; in [10], 32.25 µg/mL (≈ 45.6 µM).
Turning to `CO[C@H]1/C=C/O[C@@]2(C)Oc3c(C)c(O)c4c(O)c(c(/C=N/N5CCN(C)CC5)c(O)c4c3C2=O)NC(=O)/C(C)=C\C=C\[C@H](C)[C@H](O)[C@@H](C)[C@@H](O)[C@@H](C)[C@H](OC(C)=O)[C@@H]1C` [Rifampicin, reference compound], the IC50 was found to be 2 µg/mL (≈ 2.43 µM) in assay [1] (Staphylococcus aureus); 1 µg/mL (≈ 1.22 µM) in assay [2] (Escherichia coli); 16 µg/mL (≈ 19.4 µM) in [3] (Pseudomonas aeruginosa, P. aeruginosa, read-out: IC50); 1 µg/mL (≈ 1.22 µM) in assay [6] (Enterococcus faecalis, E. faecalis, read-out: IC50); 1 µg/mL (≈ 1.22 µM) in [8] (Streptococcus pyogenes, S. pyogens, read-out: IC50). Besides, the MIC in assay [1] (Staphylococcus aureus) came out at 4 µg/mL (≈ 4.86 µM); in [2] (Escherichia coli) it was 2 µg/mL (≈ 2.43 µM); in assay [3] (Pseudomonas aeruginosa, P. aeruginosa, read-out: MIC), 32 µg/mL (≈ 38.9 µM); in assay [6] (Enterococcus faecalis, E. faecalis, read-out: MIC), 2 µg/mL (≈ 2.43 µM); in assay [8] (Streptococcus pyogenes, S. pyogens, read-out: MIC), 2 µg/mL (≈ 2.43 µM).
As for `COC(=O)[C@H](Cc1ncn(Cc2ccc(C(C)C)cc2)c1I)NC(=O)[C@H](Cc1c[nH]c2ccccc12)NC(=O)OC(C)(C)C` [9c], the IC50 is greater than 35.2 µg/mL in assay [4]; greater than 35.2 µg/mL in assay [5]; greater than 35.2 µg/mL in assay [7]; greater than 35.2 µg/mL in assay [9]; 20.39 µg/mL (≈ 28.6 µM) in assay [10]. Besides, the MIC in assay [4] was greater than 64.0 µg/mL; in assay [5], greater than 64.0 µg/mL; in assay [7] it was greater than 64.0 µg/mL; in assay [9] it was greater than 64.0 µg/mL; in assay [10], 37.08 µg/mL (≈ 52 µM).
As to `COC(=O)[C@H](Cc1ncn(Cc2cccc(I)c2)c1I)NC(=O)[C@H](Cc1c[nH]c2ccccc12)NC(=O)OC(C)(C)C` [9n], the IC50 in assay [4] is greater than 35.2 µg/mL; in assay [5], greater than 35.2 µg/mL; in assay [7], greater than 35.2 µg/mL; in [9] it was greater than 35.2 µg/mL; in assay [10], 23.58 µg/mL (≈ 29.6 µM). For the same compound, the MIC in [4] was greater than 64.0 µg/mL; in assay [5] it was greater than 64.0 µg/mL; in [7], greater than 64.0 µg/mL; in [9], greater than 64.0 µg/mL; in assay [10], 42.87 µg/mL (≈ 53.8 µM).
`COC(=O)[C@H](Cc1ncn(Cc2cc(F)cc(F)c2)c1I)NC(=O)[C@@H](N)Cc1c[nH]c2ccccc12` [10j]: the IC50 is greater than 35.2 µg/mL in assay [4]; greater than 35.2 µg/mL in [5]; greater than 35.2 µg/mL in assay [7]; greater than 35.2 µg/mL in assay [9]; 6.09 µg/mL (≈ 10 µM) in [10]. The MIC in assay [4] is greater than 64.0 µg/mL; in assay [5] it was greater than 64.0 µg/mL; in [7], greater than 64.0 µg/mL; in assay [9], greater than 64.0 µg/mL; in [10], 11.08 µg/mL (≈ 18.2 µM).
With `COC(=O)[C@H](Cc1ncn(Cc2ccccc2)c1I)NC(=O)[C@H](Cc1c[nH]c2ccccc12)NC(=O)OC(C)(C)C` [9a], the IC50 in assay [4] is greater than 35.2 µg/mL; in assay [5], greater than 35.2 µg/mL; in assay [7], greater than 35.2 µg/mL; in assay [9], greater than 35.2 µg/mL; in assay [10], 17.78 µg/mL (≈ 26.5 µM). In addition, the MIC in [4] is greater than 64.0 µg/mL; in assay [5] it was greater than 64.0 µg/mL; in assay [7], greater than 64.0 µg/mL; in assay [9], greater than 64.0 µg/mL; in [10], 32.34 µg/mL (≈ 48.2 µM).
